According to patent publication US12662489B2 (Sitryx Therapeutics Limited, priority 2023, dated 2026):

Assays:
[1] = target: T1, MTHFD2 recombinant human enzyme (Homo sapiens, UniProt P13995); experiment: MTHFD2 inhibition assay (NAD(P)H-Glo luminescence); details: for MTHFD1/MTHFD2 IC50 ratio: selectivity of MTHFD2 inhibition over MTHFD1, band
T1 sequence (P13995 36-350): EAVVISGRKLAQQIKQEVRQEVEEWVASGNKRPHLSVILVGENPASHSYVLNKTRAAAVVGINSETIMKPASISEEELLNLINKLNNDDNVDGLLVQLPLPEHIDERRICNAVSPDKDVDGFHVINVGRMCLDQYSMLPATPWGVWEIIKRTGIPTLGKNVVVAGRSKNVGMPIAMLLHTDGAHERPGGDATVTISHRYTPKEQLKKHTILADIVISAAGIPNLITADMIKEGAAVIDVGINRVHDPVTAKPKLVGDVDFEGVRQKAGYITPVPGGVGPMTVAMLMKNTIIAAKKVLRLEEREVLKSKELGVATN

[2] = target: T2, MTHFD1 recombinant human enzyme (Homo sapiens, UniProt P11586); experiment: MTHFD1 inhibition assay (NAD(P)H-Glo luminescence); details: MTHFD1 IC50, recombinant human enzyme 200 nM, NADP, band
T2 sequence (P11586 2-291 limits assumed): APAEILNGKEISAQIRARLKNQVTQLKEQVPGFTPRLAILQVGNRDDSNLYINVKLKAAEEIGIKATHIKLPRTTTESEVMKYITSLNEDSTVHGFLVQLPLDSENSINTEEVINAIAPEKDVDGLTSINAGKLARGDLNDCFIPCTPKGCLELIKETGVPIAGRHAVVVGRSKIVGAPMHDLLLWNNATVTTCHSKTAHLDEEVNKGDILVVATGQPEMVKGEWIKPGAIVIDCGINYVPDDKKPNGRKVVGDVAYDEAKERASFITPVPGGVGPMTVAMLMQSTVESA

Row | IC50 [1] [nM] | MTHFD1/MTHFD2 IC50 ratio [1] | IC50 [2] [nM] | Compound
1 | 10 to 100 | H (>9.0 to 30) | 100 to 1000 | COC[C@H]1CN(c2cc(Cl)c3c4c(c(=O)oc3c2C)CN(C(=O)c2ccc(C(=O)NS(=O)(=O)N3CC5(CCC5)C3)c(OC)c2)CC4)CCN1C [Example 279, (R)-N-((2-azaspiro[3.3]heptan-2-yl)sulfonyl)-4-(10-chloro-8-(3-(methoxymethyl)-4-methylpiperazin-1-yl)-7-methyl-5-oxo-1,3,4,5-tetrahydro-2H-chromeno[3,4-c]pyridine-3-carbonyl)-2-methoxybenzamide]
2 | 10 to 100 | H (>9.0 to 30) | 100 to 1000 | COC[C@H]1CN(c2cc(Cl)c3c4c(c(=O)oc3c2C)CN(C(=O)c2cc(N(C)C)c(C(=O)NS(=O)(=O)N3CC[C@@H](OC)C3)cc2F)CC4)CCN1C [Example 285, 4-(10-chloro-8-((R)-3-(methoxymethyl)-4-methylpiperazin-1-yl)-7-methyl-5-oxo-1,3,4,5-tetrahydro-2H-chromeno[3,4-c]pyridine-3-carbonyl)-2-(dimethylamino)-5-fluoro-N-(((R)-3-methoxypyrrolidin-1-yl)sulfonyl)benzamide]
3 | 1 to 10 | G (^ 3 to 9.0) | 10 to 100 | COC[C@H]1CN(c2cc(C)c3c4c(c(=O)oc3c2C)CN(C(=O)c2ccc(C(=O)NS(=O)(=O)N(C)C)c(OC(C)C)c2F)CC4)CCN1C [Example 148, (R)-N-(N,N-dimethylsulfamoyl)-3-fluoro-2-isopropoxy-4-(8-(3-(methoxymethyl)-4-methylpiperazin-1-yl)-7,10-dimethyl-5-oxo-1,3,4,5-tetrahydro-2H-chromeno[3,4-c]pyridine-3-carbonyl)benzamide]
4 | 10 to 100 | G (^ 3 to 9.0) | 10 to 100 | COC[C@H]1CN(c2cc(C)c3c4c(c(=O)oc3c2C)CN(C(=O)c2ccc(C(=O)NS(=O)(=O)N(C)C)c(OC)c2F)CC4)CCN1C [Example 134, (R)-N-(N,N-dimethylsulfamoyl)-3-fluoro-2-methoxy-4-(8-(3-(methoxymethyl)-4-methylpiperazin-1-yl)-7,10-dimethyl-5-oxo-1,3,4,5-tetrahydro-2H-chromeno[3,4-c]pyridine-3-carbonyl)benzamide]
5 | 10 to 100 | G (^ 3 to 9.0) | 100 to 1000 | COC[C@H]1CN(c2cc(Cl)c3c4c(c(=O)oc3c2C)CN(C(=O)c2cc(N(C)C)c(C(=O)NS(=O)(=O)N3CCCCC3)cc2F)CC4)CCN1C [Example 275, (R)-4-(10-chloro-8-(3-(methoxymethyl)-4-methylpiperazin-1-yl)-7-methyl-5-oxo-1,3,4,5-tetrahydro-2H-chromeno[3,4-c]pyridine-3-carbonyl)-2-(dimethylamino)-5-fluoro-N-(piperidin-1-ylsulfonyl)benzamide]
6 | 10 to 100 | F (<3) | 10 to 100 | COC[C@H]1CN(c2cc(C)c3c4c(c(=O)oc3c2C)CN(C(=O)c2ccc(C(=O)NS(=O)(=O)N3CCCC3)c(OC3C5CC6CC(C5)CC3C6)c2F)CC4)CCN1C (stereo partly drawn) [Example 94, 2-((adamantan-2-yl)oxy)-3-fluoro-4-(8-((R)-3-(methoxymethyl)-4-methylpiperazin-1-yl)-7,10-dimethyl-5-oxo-1,3,4,5-tetrahydro-2H-chromeno[3,4-c]pyridine-3-carbonyl)-N-(pyrrolidin-1-ylsulfonyl)benzamide]
7 | 10 to 100 | F (<3) | 10 to 100 | COC[C@H]1CN(c2cc(C)c3c4c(c(=O)oc3c2C)CN(C(=O)c2cc(OC3CCCC3)c(C(=O)NS(=O)(=O)N(C)C)cc2F)CC4)CCN1C [Example 110, (R)-2-(cyclopentyloxy)-N-(N,N-dimethylsulfamoyl)-5-fluoro-4-(8-(3-(methoxymethyl)-4-methylpiperazin-1-yl)-7,10-dimethyl-5-oxo-1,3,4,5-tetrahydro-2H-chromeno[3,4-c]pyridine-3-carbonyl)benzamide]
8 | 10 to 100 | F (<3) | 100 to 1000 | CCOc1c(C(=O)NS(=O)(=O)N2CC3CCC2C3)ccc(C(=O)N2CCc3c(c(=O)oc4c(C)c(N5CCN(C)[C@@H](COC)C5)ccc34)C2)c1F (some centres unmarked) [Example 230]
9 | 1 to 10 | F (<3) | 1 to 10 | COC[C@H]1CN(c2cc(C)c3c4c(c(=O)oc3c2C)CN(C(=O)c2ccc(C(=O)NS(=O)(=O)N(C)C)c(N3CCCC(F)(F)C3)c2)CC4)CCN1C [Example 77, (R)-2-(3,3-difluoropiperidin-1-yl)-N-(N,N-dimethylsulfamoyl)-4-(8-(3-(methoxymethyl)-4-methylpiperazin-1-yl)-7,10-dimethyl-5-oxo-1,3,4,5-tetrahydro-2H-chromeno[3,4-c]pyridine-3-carbonyl)benzamide]
10 | 100 to 1000 | H (>9.0 to 30) | 1000 to 5000 | COC[C@H]1CN(c2ccc3c4c(c(=O)oc3c2C)CN(C(=O)c2cc(N3CC5CC5C3)c(C(=O)NS(=O)(=O)N(C)C)c(C(F)(F)F)c2)CC4)CCN1C (stereo partly drawn) [Example 118, 2-(3-azabicyclo[3.1.0]hexan-3-yl)-N-(N,N-dimethylsulfamoyl)-4-(8-((R)-3-(methoxymethyl)-4-methylpiperazin-1-yl)-7-methyl-5-oxo-1,3,4,5-tetrahydro-2H-chromeno[3,4-c]pyridine-3-carbonyl)-6-(trifluoromethyl)benzamide]
11 | 10 to 100 | H (>9.0 to 30) | 100 to 1000 | COC[C@H]1CN(c2cc(C)c3c4c(c(=O)oc3c2C)CN(C(=O)c2ccc(C(=O)NS(=O)(=O)N3CCCC3)c(N(C)C)c2F)CC4)CCN1C [Example 138, (R)-2-(dimethylamino)-3-fluoro-4-(8-(3-(methoxymethyl)-4-methylpiperazin-1-yl)-7,10-dimethyl-5-oxo-1,3,4,5-tetrahydro-2H-chromeno[3,4-c]pyridine-3-carbonyl)-N-(pyrrolidin-1-ylsulfonyl)benzamide]
12 | 10 to 100 | F (<3) | 10 to 100 | COC[C@H]1CN(c2cc(C)c3c4c(c(=O)oc3c2C)CN(C(=O)c2ccc(C(=O)NS(=O)(=O)N3CCCC3)c(OCC(F)(F)F)c2F)CC4)CCN1C [Example 206, (R)-3-fluoro-4-(8-(3-(methoxymethyl)-4-methylpiperazin-1-yl)-7,10-dimethyl-5-oxo-1,3,4,5-tetrahydro-2H-chromeno[3,4-c]pyridine-3-carbonyl)-N-(pyrrolidin-1-ylsulfonyl)-2-(2,2,2-trifluoroethoxy)benzamide]
13 | 1 to 10 | F (<3) | 1 to 10 | COC[C@H]1CN(c2ccc3c4c(c(=O)oc3c2Cl)CN(C(=O)c2ccc(C(=O)NS(=O)(=O)C3(C)CC3)c(O[C@@H]3C[C@@H]5C[C@@H]5C3)c2F)CC4)CCN1C [Example 60, 2-(((1R,3r,5S)-bicyclo[3.1.0]hexan-3-yl)oxy)-4-(7-chloro-8-((R)-3-(methoxymethyl)-4-methylpiperazin-1-yl)-5-oxo-1,3,4,5-tetrahydro-2H-chromeno[3,4-c]pyridine-3-carbonyl)-3-fluoro-N-((1-methylcyclopropyl)sulfonyl)benzamide]
14 | 1 to 10 |  | 10 to 100 | COC[C@H]1CN(c2cc(C)c3c4c(c(=O)oc3c2C)CN(C(=O)c2ccc(C(=O)NS(=O)(=O)C3(C)CC3)c(N3CCC(F)(F)C3)c2)CC4)CCN1C [Example 81, (R)-2-(3,3-difluoropyrrolidin-1-yl)-4-(8-(3-(methoxymethyl)-4-methylpiperazin-1-yl)-7,10-dimethyl-5-oxo-1,3,4,5-tetrahydro-2H-chromeno[3,4-c]pyridine-3-carbonyl)-N-((1-methylcyclopropyl)sulfonyl)benzamide]

Row | Compound | IC50 [1] [nM] | MTHFD1/MTHFD2 IC50 ratio [1] | IC50 [2] [nM]
15 | COC[C@H]1CN(c2ccc3c4c(c(=O)oc3c2C)CN(C(=O)c2cc(F)c(C(=O)NS(=O)(=O)N(C)C)c(N3C5CCC3CC5)c2)CC4)CCN1C [Example 23, (R)-2-(7-azabicyclo[2.2.1]heptan-7-yl)-N-(N,N-dimethylsulfamoyl)-6-fluoro-4-(8-(3-(methoxymethyl)-4-methylpiperazin-1-yl)-7-methyl-5-oxo-1,3,4,5-tetrahydro-2H-chromeno[3,4-c]pyridine-3-carbonyl)benzamide] | 1 to 10 | F (<3) | 1 to 10
16 | COC[C@H]1CN(c2cc(C)c3c4c(c(=O)oc3c2C)CN(C(=O)c2ccc(C(=O)NS(=O)(=O)N(C)C)c(OC3CCC3)c2F)CC4)CCN1C [Example 51, (R)-2-cyclobutoxy-N-(N,N-dimethylsulfamoyl)-3-fluoro-4-(8-(3-(methoxymethyl)-4-methylpiperazin-1-yl)-7,10-dimethyl-5-oxo-1,3,4,5-tetrahydro-2H-chromeno[3,4-c]pyridine-3-carbonyl)benzamide] | 1 to 10 | F (<3) | 1 to 10
